The source of these data is patent US8759333B2, “Di-azetidinyl diamide as monoacylglycerol lipase inhibitors” (Janssen Pharmaceutica, NV, priority 2010, dated 2014).

Changes are numbered by the printed parent chain. A value given as a limit tells only on which side of the number the result lay.

In one experiment the test system is tail flick. Particulars: intravenous delivery (Mechoulam et al.); cited from earlier work.
The next experiment relates to hot plate. Particulars: cited from earlier work.
Experiment [1] concerns the target T1, mutant MGL (mut-MGLL 11-313 L179S L186S) (Homo sapiens, UniProt Q99685, L169S/L176S).
T1 construct: purified mutant MGL (mut-MGLL 11-313 L179S L186S)
T1 sequence (Q99685 1-303 L169S/L176S): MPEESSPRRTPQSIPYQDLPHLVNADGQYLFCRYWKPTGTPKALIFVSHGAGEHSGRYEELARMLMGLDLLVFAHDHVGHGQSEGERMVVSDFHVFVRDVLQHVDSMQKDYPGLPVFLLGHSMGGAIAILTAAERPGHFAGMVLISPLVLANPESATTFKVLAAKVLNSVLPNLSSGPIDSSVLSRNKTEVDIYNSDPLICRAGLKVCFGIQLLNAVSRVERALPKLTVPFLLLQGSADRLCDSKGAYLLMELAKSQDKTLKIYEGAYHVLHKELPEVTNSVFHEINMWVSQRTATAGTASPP
The experiment in a line: MGL Enzyme Activity Assay, purified mutant MGL, 4MU-B substrate. It is filed as biochemical. The following applies: mutant MGL 5 nM, 4MU-B 10 μM, 37° C.; read-out: MGL mutant inh IC50. Summed up:
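Purified mutant MGL (5 nM final) with 10 μM 4MU-B in 20 mM PIPES pH 7.0, 150 mM NaCl, 0.001% Tween 20; compounds 17 to 0.0003 μM final. Fluorescence (ex 335/em 440 nm) followed 5 min at 37 °C; IC50 from fit of fractional activity versus inhibitor concentration.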

The target of experiment [2] is T2, wild type MGL (wt-MGLL 6H-11-313) (Homo sapiens, UniProt Q99685).
T2 construct: purified wild type MGL (wt-MGLL 6H-11-313); 6H (hexahistidine) (N)
T2 sequence (Q99685 1-303): T1 sequence (Q99685 1-303 L169S/L176S) with S169L, S176L
The experiment in a line: MGL Enzyme Activity Assay, purified wild type MGL, 4MU-B substrate. It is filed as biochemical. Particulars: wild type MGL 5 nM, 4MU-B 10 μM, 37° C.; read-out: MGL wild type inh IC50. As to the method: All rate-based assays were performed in black 384-well polypropylene PCR microplates (Abgene) in a total volume of 30 μL. […] Final compound concentrations ranged from 17 to 0.0003 μM.
The IC50 values for the following compounds were determined using Microsoft Office Excel from a fit of the equation to the concentration-response plot of the fractional activity as a function of inhibitor concentration.

A further experiment addresses T3, MGL (Rattus norvegicus, UniProt Q8R431).
T3 construct: one g rat brain was homogenized using a Polytron homogenizer; from tissue; host or cells: rat brain homogenate
T3 sequence (Q8R431 1-303): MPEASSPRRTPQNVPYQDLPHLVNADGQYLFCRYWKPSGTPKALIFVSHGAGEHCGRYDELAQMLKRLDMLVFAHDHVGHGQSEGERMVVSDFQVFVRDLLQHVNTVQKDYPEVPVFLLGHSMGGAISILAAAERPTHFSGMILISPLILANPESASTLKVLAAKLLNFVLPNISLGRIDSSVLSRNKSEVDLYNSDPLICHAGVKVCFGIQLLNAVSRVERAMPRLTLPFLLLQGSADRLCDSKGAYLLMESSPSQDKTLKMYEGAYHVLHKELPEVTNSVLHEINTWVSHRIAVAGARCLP
Kind of experiment: 2-AG Accumulation Assay in rat brain homogenate. It is filed as biochemical. The following applies: percent of vehicle; for activity at 1 µM: compound @1 µM, read-out: Rat Brain 2AG % VehCntrl (%) @1 µM; for activity at 10 µM: compound @10 µM, read-out: Rat Brain 2AG % VehCntrl (%) @10 µM.

In the next experiment the target is T4, mutant MGL (Homo sapiens, UniProt Q99685, L169S/L176S).
T4 construct: purified mutant MGL (mut-MGLL 11-313 L179S L186S)
T4 sequence (Q99685 1-303 L169S/L176S): T1 sequence (Q99685 1-303 L169S/L176S)
The experiment in a line: MGL ThermoFluor Assay - Mutant. It is filed as binding. Particulars: 0.07 mg/ml mutant MGL, 100 μM ANS, pH 7.0. A digest of the protocol:
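Thermal-shift binding with 0.07 mg/ml L169S/L176S mutant MGL, 100 μM 1,8-ANS, 200 mM NaCl, 0.001% Tween-20, 50 mM PIPES pH 7.0, heated 40–90 °C at 1 °C/min.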

The subject of experiment [3] is CFA-Induced Paw Radiant Heat Hypersensitivity. The experiment in a line: CFA-Induced Paw Radiant Heat Hypersensitivity. Format: in vivo. Particulars: rat, HPβCD; for Method 2: peak % reversal: individual animal values. As to the method: Each rat was placed in a test chamber on a warm glass surface and allowed to acclimate for approximately 10 min. A radiant thermal stimulus (beam of light) was focused through the glass onto the plantar surface of each hind paw in turn. The thermal stimulus was automatically shut off by a photoelectric relay when the paw was moved or when the cut-off time was reached (20 sec for radiant heat at ˜5 amps). An initial (baseline) response latency to the thermal stimulus was recorded for each animal prior to the injection of complete Freund's adjuvant (CFA). Twenty-four hours following intraplantar CFA injection, the response latency of the animal to the thermal stimulus was re-evaluated and compared to the animal's baseline response time. […] Immediately following the post-CFA latency assessment, the indicated test compound or vehicle was administered orally. Post-compound treatment withdrawal latencies were assessed at fixed time intervals, typically 30, 60, 120, 180, and 300 min.
The percent reversal (% R) of hypersensitivity was calculated in one of two different ways:
1) using group mean values or 2) using individual animal values. More specifically:
Method 1. For all compounds, the % R of hypersensitivity was calculated using the mean value for groups of animals at each time point according to the following formula: % reversal=[(group treatment response−group CFA response)/(group baseline response−group CFA response)]×100 Results were given for the maximum % reversal observed for each compound at any time point tested.
Method 2. For some compounds, the % R of hypersensitivity was calculated separately for each animal according to the following formula: % reversal=[(individual treatment response−individual CFA response)/(individual baseline response−individual CFA response)]×100.
Results are given as a mean of the maximum % reversal values calculated for each individual animal.

Experiment [4] concerns murine model of acute inflammation. Particulars: murine model of acute inflammation (Comelli et al.); cited from earlier work.
Setting [5] is: po, 5 h, 30 mg/kg p.o., group mean values, last time point 300 min (180 min for Cpd 17, 77), read-out: Method 1: peak % reversal.

With `CCCCC/C=C\C/C=C\C/C=C\C/C=C\CCCC(=O)OC(CO)CO` [2-AG, 2-arachidinoylglycerol], the “analgesia in tail flick assay” value in the experiment on tail flick is reported as “produces analgesia”. For the same compound, the “analgesia in hot plate assay, given alone” value with hot plate (2-AG given alone (Ben-Shabat et al.)) is “not analgesic”. For the same compound, the “analgesia in hot plate assay” value in the experiment with hot plate (intravenous delivery (Lichtman et al.)) is recorded as “produces analgesia”.
Regarding `O=C(c1ccc2c(ccn2-c2ccc(C(F)(F)F)cc2)c1)N1CC(N2CC(N3Cc4ccccc4C3=O)C2)C1` [Cpd 70, 2-[1′-({1-[4-(Trifluoromethyl)phenyl]-1H-indol-5-yl}carbonyl)-1,3′-biazetidin-3-yl]-2,3-dihydro-1H-isoindol-1-one], the IC50 is 8 nM in experiment [1] and under 5 nM in experiment [2]. For the same compound, the activity at 1 µM at MGL stood at 483%. Besides, the activity at 10 µM at MGL was determined as 736%. The compound also showed a dissociation constant Kd on mutant MGL of 3.5 nM. In addition, in experiment [3] (po, 5 h, 10 mg/kg p.o., group mean values, last time point 300 min, read-out: Method 1: peak % reversal), the inhibition in vivo at 10 mg/kg was 28.2%. Moreover, the inhibition in vivo at 30 mg/kg in experiment [3] (setting [5]) turned out to be 4.7%. Besides, the “Method 2: peak % reversal” value in experiment [3] (10 mg/kg p.o., last time point 300 min) came out at 22.5%; in experiment [3] (30 mg/kg p.o., last time point 300 min (180 min for Cpd 17, 77)), 5%.
As for `O=C(c1cc2cc(-c3ccccc3)ccc2s1)N1CC(N2CC(N3Cc4ccccc4C3=O)C2)C1` [Cpd 79, 2-{1′-[(5-Phenyl-1-benzothiophen-2-yl)carbonyl]-1,3′-biazetidin-3-yl}-2,3-dihydro-1H-isoindol-1-one], the IC50 came out at 18 nM in experiment [1] and 10 nM in experiment [2]. The activity at 1 µM at MGL is 253%. The activity at 10 µM at MGL was 676%. This compound also yielded a Kd on mutant MGL of 33.3 nM. Moreover, the inhibition in vivo at 30 mg/kg in experiment [3] (setting [5]) was determined as 33.7%.
On to `O=C(Nc1cccc(-c2ccccc2)c1)OC1CCCCC1` [URB602], for which the antinociceptive effect entry in experiment [4] is listed as “showed an antinociceptive effect”.

As a reminder, the IC50 is the concentration at which inhibition is half-maximal. One may read the Kd as the constant that tells how readily two partners part at equilibrium. A low value points to higher affinity.
